Consider 72 compounds from patent US20210371388A1, “Bicyclic Carboxamide with Exocyclic Urea Derivatives as Antivirals for the Treatment of HBV Infection” (Baruch S. Blumberg Institute, priority 2020, published 2021).

This assay has as its system HBV replication in AML12HBV10 cells. The assay can be described thus: Antiviral efficacy: HBV DNA in AML12HBV10 cell lysates by dot-blot hybridization. The format is cell-based. To be noted: Hepatitis B virus, AML12HBV10, 48 h, read-out: Antiviral activity (EC50), AML12HBV10 cells, 48 hours treatment, concentration that reduces the amount of HBV DNA by 50%. Here is the method: The antiviral efficacy of the compounds of the disclosure, as presented in Table 2, were determined in AML12HBV10 cells. AML12HBV10 is an immortalized murine hepatocyte (AML12)-derived stable cell line that supports robust HBV replication in a tetracycline inducible manner (Xu et al.). The cells were seeded into 96 well plates at a density of 2×10^4 cells per well and cultured in DMEM/F12 media with 10% fetal bovine serum in the absence of tetracycline to allow pgRNA transcription and HBV DNA replication. One day after seeding, cells were left untreated or treated with a serial dilution of testing compounds, ranging from 50 μM to 0.39 μM, for 48 hours. Cells were then lysed by adding into each well of 100 μl lysis buffer containing 10 mM Tris-HCl (pH 7.6), 1 mM EDTA, 100 mM NaCl and 1% NP-40 and incubated at 37° C. for 30 minutes. Half amount (50 μλ) of cell lysate from each well was combined with equal volume of denaturing solution containing 0.5N NaOH and 1.5M NaCl. After 5 minute incubation, 100 μl of neutralization solution (1M Tris-HCl, pH 7.4, 1.5M NaCl) was added into each well. The denatured cell lysates (totally 200 μl) were applied onto Nylon membrane using 96-well dot-blot manifold (Biorad). HBV DNA in the cell lysates were determined by dot-blot hybridization with alpha-^32P-UTP-labelled riboprobe specific for HBV minus strand DNA. The antiviral efficacy of a compound of the disclosure was expressed as the concentration that reduces the amount of HBV DNA by 50% (EC50).
As for `O=C1CCN(C(=O)Nc2ccc(F)c(Cl)c2)c2ccccc21` [Entry 1], the EC50 turned out to be 1.32 µM.
Regarding `O=C1CCN(C(=O)Nc2ccc(F)c(Cl)c2)[C@H]2CCCC[C@H]12` [Entry 3], the EC50 came to 0.42 µM.
The result for `O=C(Nc1ccc(F)c(Cl)c1)N1CCc2ccccc21` [Entry 4] reads 0.36 µM.
The result for `O=C(Nc1ccc(F)c(Cl)c1)N1CCOc2ccccc21` [Entry 5] reads 0.52 µM.
To `O=C(Nc1ccc(F)c(Cl)c1)N1CCCCc2ccccc21` [Entry 6] belongs 12.3 µM; to `O=C(Nc1ccc(F)c(Cl)c1)N1CCCc2ccccc21` [Entry 8], 1.55 µM.
As to `O=C(Nc1ccc(F)c(Cl)c1)N1CCNc2ccccc21` [Entry 9], the EC50 was determined as 0.5 µM.
To `O=C1CCCN(C(=O)Nc2ccc(F)c(Cl)c2)c2ccccc21` [Entry 10] belongs ≥ 10 µM; to `Cc1ccc2c(c1)CCN2C(=O)Nc1ccc(F)c(Cl)c1` [Entry 11], 5.26 µM.
The result for `O=C(Nc1ccc(F)c(Cl)c1)N1CCc2cc(F)c(F)cc21` [Entry 12] reads 2.07 µM; that for `O=C1CCN(C(=O)Nc2cc(F)c(F)c(F)c2)[C@H]2CCCC[C@@H]12` [Entry 13], 2.41 µM.
For the compound `O=C1CCN(C(=O)Nc2cc(F)c(F)c(F)c2)[C@H]2CCCC[C@H]12` [Entry 14], the EC50 is 3.46 µM.
In the case of `CC1(O)CCN(C(=O)Nc2ccc(F)c(Cl)c2)C2CCCCC21` (stereo not drawn) [Entry 15], the EC50 came to 6.4 µM.
The result for `O=C(Nc1cc(F)c(F)c(F)c1)N1CCC(O)C2CCCCC21` (stereo not drawn) [Entry 19] reads ≥ 10 µM.
To `O=C1CCN(C(=O)Nc2cc(F)c(F)c(Cl)c2)C2CCCCC12` (stereo not drawn) [Entry 20] belongs 2.4 µM.
`O=C(Nc1cc(F)c(F)c(F)c1)N1CCNc2ccccc21` [Entry 21]: the EC50 came to 0.63 µM.
To `O=C1CN(C(=O)Nc2cc(F)c(F)c(F)c2)c2ccccc2N1` [Entry 22] belongs ≥ 10 µM; to `O=C1CN(C(=O)Nc2ccc(F)c(Cl)c2)c2ccccc2N1` [Entry 23], ≥ 10 µM; to `O=C(Nc1ccc(F)c(Cl)c1)N1CCN(CCCCF)c2ccccc21` [Entry 24], ≥ 10 µM.
To `O=C(Nc1cc(F)c(F)c(F)c1)N1CCN(CC(F)(F)F)c2ccccc21` [Entry 25] belongs ≥ 10 µM; to `O=C(Nc1cc(F)c(F)c(F)c1)N1CCN(CCC(F)(F)F)c2ccccc21` [Entry 26], ≥ 10 µM; to `O=C(Nc1cc(F)c(F)c(F)c1)N1CCN(C(=O)c2ccccn2)c2ccccc21` [Entry 27], ≥ 10 µM.
To `O=C(Nc1cc(F)c(F)c(F)c1)N1CCN(C(=O)c2ccc(C(F)(F)F)cc2)c2ccccc21` [Entry 28] belongs ≥ 10 µM; to `CC(=O)N1CCN(C(=O)Nc2cc(F)c(F)c(F)c2)c2ccccc21` [Entry 29], ≥ 10 µM; to `CC(C)(C)C(=O)N1CCN(C(=O)Nc2cc(F)c(F)c(F)c2)c2ccccc21` [Entry 30], ≥ 10 µM.
Regarding `CC(C)C(=O)N1CCN(C(=O)Nc2cc(F)c(F)c(F)c2)c2ccccc21` [Entry 31], the EC50 is 4.71 µM.
The result for `O=C(Nc1cc(F)c(F)c(F)c1)N1CCN(C(=O)c2ccccc2)c2ccccc21` [Entry 32] reads ≥ 10 µM.
To `O=C(Nc1cc(F)c(F)c(Cl)c1)N1CCNc2ccccc21` [Entry 33] belongs 0.93 µM; to `O=C(Nc1cc(F)c(F)c(F)c1)N1CCN(S(=O)(=O)c2ccccc2)c2ccccc21` [Entry 34], ≥ 10 µM.
The result for `CCCCOC(=O)N1CCN(C(=O)Nc2cc(F)c(F)c(F)c2)c2ccccc21` [Entry 35] reads ≥ 10 µM; that for `CC(C)COC(=O)N1CCN(C(=O)Nc2cc(F)c(F)c(F)c2)c2ccccc21` [Entry 36], ≥ 10 µM; that for `O=C(Nc1cc(F)c(F)c(F)c1)N1CCN(C(=O)OCc2ccccc2)c2ccccc21` [Entry 37], ≥ 10 µM.
For the compound `O=C(Nc1cc(F)c(F)c(F)c1)N1CCNC2CCCCC21` (stereo not drawn) [Entry 38], the EC50 is ≥ 10 µM.
The result for `O=C(Nc1ccc(F)c(Cl)c1)N1CCNC2CCCCC21` (stereo not drawn) [Entry 40] reads ≥ 10 µM; that for `O=C(Nc1ccc(F)c(Cl)c1)N1CCOC2CCCCC21` (stereo not drawn) [Entry 41], ≥ 10 µM; that for `O=C(Nc1ccc(F)c(Cl)c1)N1CCN(C(=O)Nc2ccc(F)c(Cl)c2)[C@H]2CCCC[C@@H]21` [Entry 42], ≥ 10 µM.
The result for `CC(C)(C)OC(=O)N1CCN(C(=O)Nc2ccc(F)c(Cl)c2)[C@H]2CCCC[C@@H]21` [Entry 43] reads ≥ 10 µM; that for `CC(C)(C)OC(=O)N1CCN(C(=O)Nc2ccc(F)c(Cl)c2)[C@@H]2CCCC[C@@H]21` [Entry 44], ≥ 10 µM.
The result for `O=C(Nc1ccc(F)c(Cl)c1)N1CCCC2CCCCC21` (stereo not drawn) [Entry 46] reads ≥ 10 µM; that for `O=C(Nc1ccc(F)c(Cl)c1)N1CCN[C@H]2CCCC[C@H]21` [Entry 47], ≥ 10 µM.
For the compound `O=C(Nc1ccc(F)c(Cl)c1)N1CCN(C(=O)Nc2ccc(F)c(Cl)c2)c2ccccc21` [Entry 48], the EC50 is 0.75 µM.
The result for `O=C(Nc1ccc(F)c(Cl)c1)N1CC2(CCCC2)Nc2ccccc21` [Entry 49] reads ≥ 10 µM; that for `CC1(C)CN(C(=O)Nc2ccc(F)c(Cl)c2)c2ccccc2N1` [Entry 50], ≥ 10 µM.
To `CC1CN(C(=O)Nc2ccc(F)c(Cl)c2)c2ccccc2N1` (stereo not drawn) [Entry 51] belongs ≥ 10 µM; to `O=C(Nc1ccc(F)c(Cl)c1)N1CC(c2ccccc2)Nc2ccccc21` (stereo not drawn) [Entry 52], ≥ 10 µM; to `O=C(Nc1ccc(F)c(Cl)c1)N1CCS(=O)(=O)c2ccccc21` [Entry 53], ≥ 10 µM.
To `CC(C)(C)NC(=O)N1CCN(C(=O)Nc2ccc(F)c(Cl)c2)c2ccccc21` [Entry 54] belongs ≥ 10 µM; to `O=C1CN(C(=O)Nc2ccc(F)c(Cl)c2)C2CCCCC2N1` (stereo not drawn) [Entry 56], ≥ 10 µM; to `O=C(Nc1cccc(Cl)c1)N1CCN(C(=O)Nc2ccc(F)c(Cl)c2)c2ccccc21` [Entry 57], 0.65 µM.
Take `O=C(Nc1cc(Cl)ccc1F)N1CCNc2ccccc21` [Entry 58]: the EC50 worked out at 0.77 µM.
To `O=C(Nc1cc(F)c(F)c(F)c1)N1CCN(C(=O)Nc2cc(F)c(F)c(F)c2)c2ccccc21` [Entry 59] belongs 1.12 µM; to `NC(=O)C1CN(C(=O)Nc2ccc(F)c(Cl)c2)c2ccccc2N1` (stereo not drawn) [Entry 62], ≥ 10 µM; to `O=C(Nc1ccc(F)c(Cl)c1)N1c2ccccc2NCC1c1ccccc1` (stereo not drawn) [Entry 63], 0.78 µM.
In the case of `CC1CNc2ccccc2N1C(=O)Nc1ccc(F)c(Cl)c1` (stereo not drawn) [Entry 64], the EC50 stood at 4.38 µM.
The result for `CC1CN(C(=O)Nc2ccc(F)c(Cl)c2)c2ccccc2N1C(=O)Nc1ccc(F)c(Cl)c1` (stereo not drawn) [Entry 65] reads 1.3 µM.
The result for `CC(C)C1CN(C(=O)Nc2ccc(F)c(Cl)c2)c2ccccc2N1C(=O)NCc1ccc(F)c(F)c1` (stereo not drawn) [Entry 66] reads 1.66 µM; that for `O=C(Nc1ccc(F)c(Cl)c1)N1CC(CN2CCOCC2)N(C(=O)Nc2ccc(F)c(Cl)c2)c2ccccc21` (stereo not drawn) [Entry 67], 2.03 µM; that for `O=C(Nc1ccc(F)c(Cl)c1)N1CC(CN2CCC(O)CC2)N(C(=O)Nc2ccc(F)c(Cl)c2)c2ccccc21` (stereo not drawn) [Entry 68], ≥ 10 µM.
To `O=C(Nc1ccc(F)c(Cl)c1)N1CC(CN2CCC(F)(F)C2)N(C(=O)Nc2ccc(F)c(Cl)c2)c2ccccc21` (stereo not drawn) [Entry 69] belongs 0.65 µM; to `CN1CCN(CC2CN(C(=O)Nc3ccc(F)c(Cl)c3)c3ccccc3N2C(=O)Nc2ccc(F)c(Cl)c2)CC1` (stereo not drawn) [Entry 70], ≥ 10 µM; to `O=C(Nc1ccc(F)c(Cl)c1)N1CC(CN2CCCC(F)(F)C2)N(C(=O)Nc2ccc(F)c(Cl)c2)c2ccccc21` (stereo not drawn) [Entry 72], 1.23 µM.
Regarding `O=C1CC(c2ccccc2)N(C(=O)Nc2ccc(F)c(Cl)c2)c2ccccc21` (stereo not drawn) [Entry 73], the EC50 was 2.89 µM.
To `O=C(Nc1ccc(F)c(Cl)c1)N1CC(CN2CCC(F)(F)C2)Nc2ccccc21` (stereo not drawn) [Entry 76] belongs 5.09 µM.
`O=C(Nc1ccc(F)c(Cl)c1)N1c2ccccc2NCC1CN1CCC(F)(F)CC1` (stereo not drawn) [Entry 77]: the EC50 was 0.28 µM.
Regarding `O=C(Nc1ccc(F)c(Cl)c1)N1CC(CN2CCC(F)(F)CC2)Nc2ccccc21` (stereo not drawn) [Entry 78], the EC50 amounted to 4.32 µM.
Take `O=C(Nc1ccc(F)c(Cl)c1)N1c2ccccc2NCC1CN1CCC(F)(F)C1` (stereo not drawn) [Entry 79]: the EC50 was 1.7 µM.
To `CC(C)C1CNc2ccccc2N1C(=O)Nc1ccc(F)c(Cl)c1` (stereo not drawn) [Entry 81] belongs 3.5 µM; to `O=C(Nc1ccc(F)c(Cl)c1)N1CCNc2cc(F)c(F)cc21` [Entry 82], 0.61 µM.
The result for `O=C(Nc1ccc(F)c(Cl)c1)N1CCN(C(=O)Nc2ccc(F)c(Cl)c2)c2cc(F)c(F)cc21` [Entry 83] reads 1.18 µM; that for `O=C1CC(c2ccc(F)cc2)N(C(=O)Nc2ccc(F)c(Cl)c2)c2ccccc21` (stereo not drawn) [Entry 84], 2.37 µM; that for `O=C1CCN(C(=O)Nc2ccc(F)c(Cl)c2)c2ccc(Br)cc21` [Entry 85], ≥ 10 µM.
The result for `O=C1CCN(C(=O)Nc2ccc(F)c(Cl)c2)c2ccc(Cl)cc21` [Entry 86] reads 4.83 µM.
